According to patent US8846698B2, “Pyrrolo[2,3-d]pyrimidine tropomysin-related kinase inhibitors” (Pfizer Limited, priority 2011, dated 2014):

What was measured:
TRKB = TRKB (Homo sapiens (Human), UniProt Q16620); assay: cell-based; conditions: TrkB cell potency, TRKB PathHunter cell line
Protocol: (§1) After the Detection Reagent addition, plates are covered and incubated at room temperature for 60 minutes. […] Test compound data are expressed as percentage inhibition defined by HPE and ZPE values for each plate. Percentage inhibition in the presence of test compound is plotted against compound concentration on a log scale to determine an IC50 from the resultant sigmoid curve. Cell Based Assays were carried out using Cell lines from DiscoveRx utilising their PathHunter technology and reagents in an antagonist assay:
(§2) The assays are based upon DiscoveRx's proprietary Enzyme Fragment Complementation (EFC) technology. In the case of the TRK cell lines, the enzyme acceptor (EA) protein is fused to a SH2 protein and the TRK receptor of interest has been tagged with a Prolink tag.
(§3) Upon neurotrophin binding, the TRK receptor becomes phosphorylated, and the tagged SH2 protein binds.
(§4) This means that the IC50 is a good measure of affinity and should be unaffected by concentration neurotrophin stimulant.
(§5) Cryopreserved PathHunter cells are used from either in-house produced batches or bulk batches bought directly from DiscoveRx. Cryopreserved cells are resuscitated, spun 1000 rpm for 4 min to remove freezing media, and resuspended in MEM+0.5% horse serum (both Invitrogen) to 5e^5 cells/ml. The cells are then plated using a Multidrop into Greiner white tissue culture treated plates at 20 ul/well and incubated for 24 h at 37° C., 5% CO2, high humidity. On the day of the assay, the cell plates are allowed to cool to room temperature for 30 min prior to the assay.
(§6) Plates containing 1 ul of serially diluted compound, standard and HPE/ZPE are diluted 1/66 in assay buffer (PBS minus Ca^2+, minus Mg^2+ with 0.05% pluronic F127) using a Wellmate. […] The plates are left at room temperature for a further 2 hours before addition of 10 ul of the DiscoveRx PathHunter detection reagent (made up by adding 1 part Galacton Star, 5 parts Emerald II and 19 parts Cell Assay Buffer as per the manufacturer's instructions).
(§7) After reagent addition, plates are covered and incubated at room temperature for 60 minutes. Luminescence signal is read using an Envision. Test compound data are expressed as percentage inhibition defined by HPE and ZPE values for each plate. Percentage inhibition in the presence of test compound is plotted against compound concentration on a log scale to determine an […] from the resultant sigmoid curve.

TRKA [1] = target: T1, TRKA (Homo sapiens (Human), UniProt P04629); assay: Cell based DiscoveRx PathHunter antagonist assay, TRKA cell line; conditions: read-out: TrkA cell potency
Protocol: as §1, §2, §3, §4, §5, §6, §7
Target sequence in this assay (P04629 33-796): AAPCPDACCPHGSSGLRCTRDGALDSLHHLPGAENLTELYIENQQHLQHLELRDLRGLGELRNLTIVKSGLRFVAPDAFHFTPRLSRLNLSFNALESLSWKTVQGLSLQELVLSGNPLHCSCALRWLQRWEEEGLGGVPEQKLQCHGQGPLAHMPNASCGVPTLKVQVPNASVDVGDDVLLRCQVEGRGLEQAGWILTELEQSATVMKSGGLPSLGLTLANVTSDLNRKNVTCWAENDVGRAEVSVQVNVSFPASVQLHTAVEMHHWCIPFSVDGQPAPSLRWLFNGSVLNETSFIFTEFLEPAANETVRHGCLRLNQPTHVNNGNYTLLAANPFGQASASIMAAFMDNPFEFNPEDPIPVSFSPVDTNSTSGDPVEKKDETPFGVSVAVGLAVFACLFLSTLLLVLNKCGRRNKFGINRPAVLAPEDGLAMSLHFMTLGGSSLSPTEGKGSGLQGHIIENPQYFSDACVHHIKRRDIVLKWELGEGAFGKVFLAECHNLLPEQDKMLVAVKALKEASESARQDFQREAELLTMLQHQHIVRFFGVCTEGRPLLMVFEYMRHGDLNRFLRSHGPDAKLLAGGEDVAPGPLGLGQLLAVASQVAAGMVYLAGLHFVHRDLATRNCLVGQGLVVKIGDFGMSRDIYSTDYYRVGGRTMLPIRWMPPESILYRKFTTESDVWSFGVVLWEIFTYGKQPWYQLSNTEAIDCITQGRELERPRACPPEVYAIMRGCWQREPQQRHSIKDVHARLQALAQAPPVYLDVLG

TRKA [2] = target: T1, TRKA; assay: Isolated TRK enzyme assay (HTRF KinEASE-TK), TRKA; assay type: biochemical; conditions: isolated TRKA enzyme; read-out: TrkA enzyme potency
Target sequence in this assay (P04629 441-796): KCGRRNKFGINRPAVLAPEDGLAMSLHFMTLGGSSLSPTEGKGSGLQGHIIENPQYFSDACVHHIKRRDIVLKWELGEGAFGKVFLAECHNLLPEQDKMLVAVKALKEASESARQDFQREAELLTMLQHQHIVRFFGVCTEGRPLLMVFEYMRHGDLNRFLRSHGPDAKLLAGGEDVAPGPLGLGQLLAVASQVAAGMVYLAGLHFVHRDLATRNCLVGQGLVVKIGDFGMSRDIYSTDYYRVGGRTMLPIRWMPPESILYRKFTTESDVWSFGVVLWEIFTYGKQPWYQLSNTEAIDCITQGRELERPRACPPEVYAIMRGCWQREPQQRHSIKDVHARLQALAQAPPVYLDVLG

MDR1 = MDR1 (Homo sapiens (Human), UniProt P08183); assay: MDCK-MDR1 assay (in vitro brain penetration); assay type: in vitro ADME; conditions: for Papp B→A / Papp A→B: human; for Papp B→A: MDCK-MDR1, MDCK-MDR1, B to A, read-out: MDCK MDR1 Papp BA; for Papp A→B / MDCK MDR1 Papp AB: MDCK-MDR1, A to B; for Papp A→B: read-out: MDCK MDR1 Papp AB; for MDCK MDR1 Papp BA: MDCK-MDR1, B to A
From the text: MDCK-MDR1: MDCK-MDR1 data were collected according to the method described in “Are MDCK Cells Transfected with the Human MDR1 Gene a Good Model of the Human Intestinal Mucosa?”
http://www.springerlink.com/content/qfhqlqbr4fnp3 khf/fulltext.pdf

Sequence of MDR1 (P08183 whole entry): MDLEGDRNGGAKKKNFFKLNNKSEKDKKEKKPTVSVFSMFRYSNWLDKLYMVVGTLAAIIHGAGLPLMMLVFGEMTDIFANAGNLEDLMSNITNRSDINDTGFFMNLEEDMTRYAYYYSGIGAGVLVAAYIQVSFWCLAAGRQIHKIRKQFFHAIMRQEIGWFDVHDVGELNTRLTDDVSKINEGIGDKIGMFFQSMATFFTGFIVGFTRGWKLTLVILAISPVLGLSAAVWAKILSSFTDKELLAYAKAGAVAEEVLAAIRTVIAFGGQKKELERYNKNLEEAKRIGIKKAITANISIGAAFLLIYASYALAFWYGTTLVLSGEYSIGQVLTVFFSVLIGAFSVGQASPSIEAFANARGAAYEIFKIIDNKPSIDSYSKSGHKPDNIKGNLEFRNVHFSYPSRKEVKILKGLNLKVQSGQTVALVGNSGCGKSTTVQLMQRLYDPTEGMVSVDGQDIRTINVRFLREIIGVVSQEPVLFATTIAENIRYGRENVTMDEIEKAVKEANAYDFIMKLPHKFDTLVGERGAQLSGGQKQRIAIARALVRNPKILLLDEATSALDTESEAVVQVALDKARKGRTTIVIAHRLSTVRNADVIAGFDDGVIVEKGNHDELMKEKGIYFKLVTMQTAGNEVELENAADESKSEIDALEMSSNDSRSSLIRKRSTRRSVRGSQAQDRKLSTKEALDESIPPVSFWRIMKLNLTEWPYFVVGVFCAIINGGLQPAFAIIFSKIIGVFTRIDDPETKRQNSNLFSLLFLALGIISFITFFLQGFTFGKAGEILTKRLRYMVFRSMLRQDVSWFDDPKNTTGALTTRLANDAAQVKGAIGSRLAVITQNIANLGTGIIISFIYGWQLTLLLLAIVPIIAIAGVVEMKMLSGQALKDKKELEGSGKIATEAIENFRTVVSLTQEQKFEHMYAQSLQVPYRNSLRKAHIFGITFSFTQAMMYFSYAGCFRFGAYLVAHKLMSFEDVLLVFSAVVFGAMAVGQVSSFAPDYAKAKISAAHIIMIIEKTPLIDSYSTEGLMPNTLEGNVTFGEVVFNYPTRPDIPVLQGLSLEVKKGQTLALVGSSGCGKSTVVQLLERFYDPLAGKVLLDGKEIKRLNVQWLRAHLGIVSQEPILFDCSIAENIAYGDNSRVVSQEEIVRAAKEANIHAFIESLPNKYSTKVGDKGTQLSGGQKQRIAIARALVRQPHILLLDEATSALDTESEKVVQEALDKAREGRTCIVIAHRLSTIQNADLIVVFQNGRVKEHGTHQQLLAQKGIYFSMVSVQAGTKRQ
Sequence of TRKB (Q16620 32-822 limits assumed): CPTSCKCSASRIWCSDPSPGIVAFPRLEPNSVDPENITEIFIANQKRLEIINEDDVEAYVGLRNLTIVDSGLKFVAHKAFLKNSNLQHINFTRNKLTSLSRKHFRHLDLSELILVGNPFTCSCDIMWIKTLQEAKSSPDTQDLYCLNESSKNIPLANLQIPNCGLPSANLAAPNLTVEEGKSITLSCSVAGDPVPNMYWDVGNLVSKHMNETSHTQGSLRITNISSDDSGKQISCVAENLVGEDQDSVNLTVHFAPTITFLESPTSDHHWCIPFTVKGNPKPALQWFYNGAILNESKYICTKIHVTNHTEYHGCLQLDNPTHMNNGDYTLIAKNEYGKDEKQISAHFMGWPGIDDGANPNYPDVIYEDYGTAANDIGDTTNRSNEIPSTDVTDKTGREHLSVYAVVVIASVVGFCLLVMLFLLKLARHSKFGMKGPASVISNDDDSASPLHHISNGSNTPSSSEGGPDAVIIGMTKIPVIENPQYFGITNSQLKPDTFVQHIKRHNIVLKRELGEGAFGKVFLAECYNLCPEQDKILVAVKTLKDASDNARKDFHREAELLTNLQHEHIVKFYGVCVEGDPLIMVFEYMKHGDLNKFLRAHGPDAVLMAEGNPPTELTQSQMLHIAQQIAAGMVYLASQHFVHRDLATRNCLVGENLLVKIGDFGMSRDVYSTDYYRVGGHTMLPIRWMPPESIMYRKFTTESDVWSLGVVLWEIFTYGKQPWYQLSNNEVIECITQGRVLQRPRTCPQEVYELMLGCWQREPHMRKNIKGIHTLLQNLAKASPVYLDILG

Compound | IC50 (TRKB) [nM] | IC50 (TRKA [1]) [nM] | IC50 (TRKA [2]) [nM] | Papp B→A (MDR1) [×10⁻⁶ cm/s] | Papp A→B (MDR1) [×10⁻⁶ cm/s] | MDCK MDR1 Papp AB (MDR1) [×10⁻⁶ cm/s] | MDCK MDR1 Papp BA (MDR1) [×10⁻⁶ cm/s]
CC(C)(C)n1cc(C(=O)c2cncc(NC(=O)Cc3ccc(F)cn3)c2)c2cncnc21 [Example 1, N-{5-[(7-tert-Butyl-7H-pyrrolo[2,3-d]pyrimidin-5-yl)carbonyl]pyridin-3-yl}-2-(5-fluoropyridin-2-yl)acetamide] | 1.5 | 9.5 | 3.7 | 14 | 5.5 | – | –
CC(C)(C)n1cc(C(=O)c2cncc(NC(=O)Cn3ccc(C4CC4)n3)c2)c2cncnc21 [Example 3, N-{5-[(7-tert-butyl-7H-pyrrolo[2,3-d]pyrimidin-5-yl)carbonyl]pyridin-3-yl}-2-(3-cyclopropyl-1H-pyrazol-1-yl)acetamide] | 1.8 | 5.1 | 4.1 | 20 | 8.7 | – | –
CC(C)(C)n1cc(C(=O)c2cncc(NC(=O)Cc3ccc(Cl)cn3)c2)c2cncnc21 [Example 6, N-{5-[(7-tert-butyl-7H-pyrrolo[2,3-d]pyrimidin-5-yl)carbonyl]pyridin-3-yl}-2-(5-chloropyridin-2-yl)acetamide] | 1.3 | 2 | 2.5 | 16 | 6.9 | – | –
Cc1cc(C(F)(F)F)nn1CC(=O)Nc1cncc(C(=O)c2cn([C@H](C)CO)c3ncncc23)c1 [Example 17, N-[5-({7-[(1R)-2-Hydroxy-1-methylethyl]-7H-pyrrolo[2,3-d]pyrimidin-5-yl}carbonyl)pyridin-3-yl]-2-[5-methyl-3-(trifluoromethyl)-1H-pyrazol-1-yl]acetamide] | 45 | 103 | 23 | 13 | < 1 | – | –
C[C@H](CO)n1cc(C(=O)c2cncc(NC(=O)Cn3cc(C4CC4)nn3)c2)c2cncnc21 [Example 18, 2-(4-cyclopropyl-1H-1,2,3-triazol-1-yl)-N-[5-({7-[(1R)-2-hydroxy-1-methylethyl]-7H-pyrrolo[2,3-d]pyrimidin-5-yl}carbonyl)pyridin-3-yl]acetamide] | 5300 | > 8660 | 128 | < 1 | < 1 | – | –
C[C@H](CO)n1cc(C(=O)c2cncc(NC(=O)Cn3cc(C(F)(F)F)nn3)c2)c2cncnc21 [Example 21, N-[5-({7-[(1R)-2-hydroxy-1-methylethyl]-7H-pyrrolo[2,3-d]pyrimidin-5-yl}carbonyl)pyridin-3-yl]-2-[4-(trifluoromethyl)-1H-1,2,3-triazol-1-yl]acetamide] | 1770 | 5740 | 71 | 1.3 | < 1 | – | –
C[C@H](CO)n1cc(C(=O)c2cncc(NC(=O)Cn3ccc(C(F)(F)F)n3)c2)c2cncnc21 [Example 22, N-[5-({7-[(1R)-2-hydroxy-1-methylethyl]-7H-pyrrolo[2,3-d]pyrimidin-5-yl}carbonyl)pyridin-3-yl]-2-[3-(trifluoromethyl)-1H-pyrazol-1-yl]acetamide] | 190 | 596 | 25 | 6.9 | < 1 | – | –

Results, then the compound that gave them:

IC50 (TRKB) [nM] | IC50 (TRKA [1]) [nM] | IC50 (TRKA [2]) [nM] | Papp B→A (MDR1) [×10⁻⁶ cm/s] | Papp A→B (MDR1) [×10⁻⁶ cm/s] | MDCK MDR1 Papp AB (MDR1) [×10⁻⁶ cm/s] | MDCK MDR1 Papp BA (MDR1) [×10⁻⁶ cm/s] | Compound
571 | 2250 | 67 | – | – | – | – | CC(CO)n1cc(C(=O)c2cncc(NC(=O)Cc3ccc(F)cn3)c2)c2cnc(N)nc21 (single isomer, unassigned) [Example 37, N-(5-{[2-amino-7-(2-hydroxy-1-methylethyl)-7H-pyrrolo[2,3-d]pyrimidin-5-yl]carbonyl}pyridin-3-yl)-2-(5-fluoropyridin-2-yl)acetamide]
589 | 1060 | 7.2 | 2.1 | < 1 | – | – | CC(CO)n1cc(C(=O)c2cncc(NC(=O)Cn3ccc(C(F)(F)F)n3)c2)c2cnc(N)nc21 (single isomer, unassigned) [Example 38, N-(5-{[2-amino-7-(2-hydroxy-1-methylethyl)-7H-pyrrolo[2,3-d]pyrimidin-5-yl]carbonyl}pyridin-3-yl)-2-[3-(trifluoromethyl)-1H-pyrazol-1-yl]acetamide]
4710 | > 8660 | 24 | < 1 | < 1 | – | – | CC(CO)n1cc(C(=O)c2cncc(NC(=O)Cn3cc(C(F)(F)F)nn3)c2)c2cnc(N)nc21 (single isomer, unassigned) [Example 39, N-(5-{[2-amino-7-(2-hydroxy-1-methylethyl)-7H-pyrrolo[2,3-d]pyrimidin-5-yl]carbonyl}pyridin-3-yl)-2-[4-(trifluoromethyl)-1H-1,2,3-triazol-1-yl]acetamide]
506 | 2580 | 67 | 2.4 | < 1 | – | – | CC(CO)n1cc(C(=O)c2cncc(NC(=O)Cc3ccc(F)cn3)c2)c2cnc(N)nc21 (single isomer, unassigned) [Example 40, N-(5-{[2-amino-7-(2-hydroxy-1-methylethyl)-7H-pyrrolo[2,3-d]pyrimidin-5-yl]carbonyl}pyridin-3-yl)-2-(5-fluoropyridin-2-yl)acetamide]
70 | 203 | 7.6 | – | – | <1 | 6.3 | CC(CO)n1cc(C(=O)c2cncc(NC(=O)Cc3ccc(Cl)cn3)c2)c2cnc(N)nc21 (single isomer, unassigned) [Example 41, N-(5-{[2-amino-7-(2-hydroxy-1-methylethyl)-7H-pyrrolo[2,3-d]pyrimidin-5-yl]carbonyl}pyridin-3-yl)-2-(5-chloropyridin-2-yl)acetamide]
554 | 996 | 12 | – | – | <1 | 1.6 | CC(CO)n1cc(C(=O)c2cncc(NC(=O)Cn3ccc(C(F)(F)F)n3)c2)c2cnc(N)nc21 (single isomer, unassigned) [Example 44, N-(5-{[2-amino-7-(2-hydroxy-1-methylethyl)-7H-pyrrolo[2,3-d]pyrimidin-5-yl]carbonyl}pyridin-3-yl)-2-[3-(trifluoromethyl)-1H-pyrazol-1-yl]acetamide]
3790 | > 8660 | 25 | – | – | <1 | <1 | CC(CO)n1cc(C(=O)c2cncc(NC(=O)Cn3cc(C(F)(F)F)nn3)c2)c2cnc(N)nc21 (single isomer, unassigned) [Example 45, N-(5-{[2-amino-7-(2-hydroxy-1-methylethyl)-7H-pyrrolo[2,3-d]pyrimidin-5-yl]carbonyl}pyridin-3-yl)-2-[4-(trifluoromethyl)-1H-1,2,3-triazol-1-yl]acetamide]
52 | 93 | 26 | 31 | < 1 | – | – | C[C@H](CO)n1cc(C(=O)c2cncc(NC(=O)Cc3ccc(Cl)cn3)c2)c2cncnc21 [Example 23, 2-(5-chloropyridin-2-yl)-N-[5-({7-[(1R)-2-hydroxy-1-methylethyl]-7H-pyrrolo[2,3-d]pyrimidin-5-yl}carbonyl)pyridin-3-yl]acetamide]
198 | 401 | 18 | 2.6 | < 1 | – | – | CC(C)(CO)n1cc(C(=O)c2cncc(NC(=O)Cn3cc(C4CC4)nn3)c2)c2cncnc21 [Example 31, 2-(4-cyclopropyl-1H-1,2,3-triazol-1-yl)-N-(5-{[7-(2-hydroxy-1,1-dimethylethyl)-7H-pyrrolo[2,3-d]pyrimidin-5-yl]carbonyl}pyridin-3-yl)acetamide]
174 | 368 | 6.7 | 1.3 | < 1 | – | – | CC(C)(CO)n1cc(C(=O)c2cncc(NC(=O)Cn3cc(C(F)(F)F)nn3)c2)c2cnc(N)nc21 [Example 54, N-(5-{[2-Amino-7-(2-hydroxy-1,1-dimethylethyl)-7H-pyrrolo[2,3-d]pyrimidin-5-yl]carbonyl}pyridin-3-yl)-2-[4-(trifluoromethyl)-1H-1,2,3-triazol-1-yl]acetamide]
